The values that follow come from ChEMBL document CHEMBL3272104, “Inhibition of Lactobacillus casei thymidylate synthetase by 5-substituted 2'-deoxyuridylates. Preliminary quantitative structure-activity relationship” (J Med Chem, 1977).

For series [1], the target named is T1, Thymidylate synthase (Lactobacillus casei, UniProt P00469).
T1 sequence (P00469 whole entry): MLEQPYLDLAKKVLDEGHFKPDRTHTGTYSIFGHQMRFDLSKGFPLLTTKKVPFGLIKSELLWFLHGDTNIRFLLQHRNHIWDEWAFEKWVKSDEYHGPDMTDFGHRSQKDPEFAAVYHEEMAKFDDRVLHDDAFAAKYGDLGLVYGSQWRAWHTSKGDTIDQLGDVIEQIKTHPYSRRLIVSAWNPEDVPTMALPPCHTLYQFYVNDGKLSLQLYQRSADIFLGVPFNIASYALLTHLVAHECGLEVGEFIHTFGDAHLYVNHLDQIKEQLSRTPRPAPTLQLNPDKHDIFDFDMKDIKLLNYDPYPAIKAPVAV
The series can be described thus: Inhibition of amethopterin-resistant Lactobacillus casei thymidylate synthetase-catalyzed dTMP formation using dUMP as substrate by spectrophotometric analysis in presence of CH2-H4-folate. As to conditions: read-out: Ki(app). Also noted: species or system Lacticaseibacillus casei.

Series [2] deals with T1, Thymidylate synthase. The series can be described thus: Inhibition of amethopterin-resistant Lactobacillus casei thymidylate synthetase-catalyzed 5-BrdUMP dehalogenation by absorbance analysis in absence of CH2-H4-folate. The arrangement: species or system Lacticaseibacillus casei. As to conditions: read-out: Ki(app).
Series [3] concerns the target T2, Thymidylate synthase (Lactobacillus casei) (UniProt P00469).
T2 sequence (whole entry): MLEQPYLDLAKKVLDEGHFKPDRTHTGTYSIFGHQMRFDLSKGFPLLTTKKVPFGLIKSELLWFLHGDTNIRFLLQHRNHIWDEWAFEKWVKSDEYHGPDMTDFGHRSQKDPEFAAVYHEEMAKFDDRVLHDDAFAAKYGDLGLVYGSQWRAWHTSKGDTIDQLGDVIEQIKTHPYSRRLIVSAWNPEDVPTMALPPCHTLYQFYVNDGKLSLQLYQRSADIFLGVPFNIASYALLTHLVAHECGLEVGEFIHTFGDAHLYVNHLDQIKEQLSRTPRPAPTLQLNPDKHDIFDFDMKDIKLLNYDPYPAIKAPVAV
The series can be described thus: Activity at amethopterin-resistant Lactobacillus casei thymidylate synthetase assessed as rate of dTMP formation by absorbance analysis in presence of CH2-H4-folate. As to conditions: Lacticaseibacillus casei.

Substrate in series [4]: O=c1ccn([C@H]2C[C@H](O)[C@@H](COP(=O)(O)O)O2)c(=O)[nH]1
As to conditions: Lacticaseibacillus casei.

Substrate in series [5]: O=c1[nH]c(=O)n([C@H]2C[C@H](O)[C@@H](COP(=O)(O)O)O2)cc1I
As to the kind of experiment: Activity at amethopterin-resistant Lactobacillus casei thymidylate synthetase by absorbance analysis. As to conditions: Lacticaseibacillus casei.

Substrate in series [6]: O=c1[nH]c(=O)n([C@H]2C[C@H](O)[C@@H](COP(=O)(O)O)O2)cc1Br
Described as above. As to conditions: Lacticaseibacillus casei.

The term Km denotes the concentration of substrate that gives half-maximal velocity.

`Cc1cn([C@H]2C[C@H](O)[C@@H](COP(=O)(O)O)O2)c(=O)[nH]c1=O` [THYMIDINE MONOPHOSPHATE]: the Ki was determined as 15500 nM on Thymidylate synthase [1] and 8690 nM at Thymidylate synthase [2].
Turning to `O=c1[nH]c(=O)n([C@H]2C[C@H](O)[C@@H](COP(=O)(O)O)O2)cc1C(F)(F)F`, the Ki at Thymidylate synthase [1] was found to be 39 nM.
`O=c1[nH]c(=O)n([C@H]2C[C@H](O)[C@@H](COP(=O)(O)O)O2)cc1Cl`: the Ki amounted to 190 nM at Thymidylate synthase [1] and 9390 nM on Thymidylate synthase [2].
On to `O=c1ccn([C@H]2C[C@H](O)[C@@H](COP(=O)(O)O)O2)c(=O)[nH]1` [DEOXYURIDINE MONOPHOSPHATE], for which, at Thymidylate synthase [2], the Ki was found to be 2260 nM.
Turning to `O=c1[nH]c(=O)n([C@H]2C[C@H](O)[C@@H](COP(=O)(O)O)O2)cc1Br`, on Thymidylate synthase [1], the Ki worked out at 1400 nM. Besides, the Activity in series [3] is 3%.
The like results for `O=c1[nH]c(=O)n([C@H]2C[C@H](O)[C@@H](COP(=O)(O)O)O2)cc1I` were, in that order, 1600 nM and 2.5%.
Turning to `O=Cc1cn([C@H]2C[C@H](O)[C@@H](COP(=O)(O)O)O2)c(=O)[nH]c1=O`, on Thymidylate synthase [1], the Ki worked out at 17 nM.

B1: Thymidylate synthase (Lactobacillus casei), P00469 (protein)
chain: MLEQPYLDLAKKVLDEGHFKPDRTHTGTYSIFGHQMRFDLSKGFPLLTTKKVPFGLIKSELLWFLHGDTNIRFLLQHRNHIWDEWAFEKWVKSDEYHGPDMTDFGHRSQKDPEFAAVYHEEMAKFDDRVLHDDAFAAKYGDLGLVYGSQWRAWHTSKGDTIDQLGDVIEQIKTHPYSRRLIVSAWNPEDVPTMALPPCHTLYQFYVNDGKLSLQLYQRSADIFLGVPFNIASYALLTHLVAHECGLEVGEFIHTFGDAHLYVNHLDQIKEQLSRTPRPAPTLQLNPDKHDIFDFDMKDIKLLNYDPYPAIKAPVAV
B1: the Km in series [4] was determined as 5.2 µM; in series [5], 1.44 µM; in series [6], 5.7 µM.
